According to ChEMBL document CHEMBL1629667, “Activities of dalbavancin against a worldwide collection of 81,673 gram-positive bacterial isolates” (2009):
Values after ≈ are worked out from the molar mass of the structure shown.

Key:
Staphylococcus aureus = assay: Antimicrobial activity against Oxacillin-susceptible Staphylococcus aureus by broth microdilution method; format: functional
Streptococcus [1] = assay: Antimicrobial activity against Beta-hemolytic Streptococcus by broth microdilution method; format: functional
Staphylococcus = assay: Antimicrobial activity against Oxacillin-resistant coagulase-negative Staphylococcus assessed as percent susceptible isolate by broth microdilution method; format: functional
Streptococcus [2] = assay: Antimicrobial activity against Beta-hemolytic Streptococcus assessed as percent susceptible isolate by broth microdilution method; format: functional
Enterococcus faecalis [3] = assay: Antimicrobial activity against Enterococcus faecalis VanA assessed as growth inhibition at =<[…] ug/ml by broth microdilution method; format: functional
Enterococcus faecalis [4] = assay: Antimicrobial activity against Enterococcus faecalis VanA assessed as growth inhibition at 0.06 ug/ml by broth microdilution method; format: functional
Enterococcus faecalis [5] = assay: Antimicrobial activity against Enterococcus faecalis VanA assessed as growth inhibition at 0.12 ug/ml by broth microdilution method; format: functional
Enterococcus faecalis [6] = assay: Antimicrobial activity against Enterococcus faecalis VanB assessed as growth inhibition at 4 ug/ml by broth microdilution method; format: functional
Enterococcus faecium [7] = assay: Antimicrobial activity against Enterococcus faecium VanA assessed as growth inhibition at 0.06 ug/ml by broth microdilution method; format: functional
Enterococcus faecium [8] = assay: Antimicrobial activity against Enterococcus faecium VanA assessed as growth inhibition at 0.12 ug/ml by broth microdilution method; format: functional
Enterococcus faecium [9] = assay: Antimicrobial activity against Enterococcus faecium VanA assessed as growth inhibition at 0.5 ug/ml by broth microdilution method; format: functional
Enterococcus faecium [10] = assay: Antimicrobial activity against Enterococcus faecium VanA assessed as growth inhibition at 1 ug/ml by broth microdilution method; format: functional
Enterococcus faecium [11] = assay: Antimicrobial activity against Enterococcus faecium VanB assessed as growth inhibition at 0.25 ug/ml by broth microdilution method; format: functional
[12] = tested on: Streptococcus sp. 'group A'; assay: Antimicrobial activity against Beta-hemolytic Streptococcus sp. 'group A' assessed as growth inhibition at 0.25 ug/ml by broth microdilution method; format: functional
Streptococcus sp. [13] = assay: Antimicrobial activity against Beta-hemolytic Streptococcus sp. […]; format: functional, Group F
Streptococcus sp. [14] = assay: Antimicrobial activity against Beta-hemolytic Streptococcus sp. Group F assessed as growth inhibition at 0.06 ug/ml by broth microdilution method; format: functional

**Q.** Which MIC50 (Staphylococcus aureus) does the source give for CN[C@H](CC(C)C)C(=O)N[C@H]1C(=O)N[C@@H](CC(N)=O)C(=O)N[C@H]2C(=O)N[C@H]3C(=O)N[C@H](C(=O)N[C@H](C(=O)O)c4cc(O)cc(O)c4-c4cc3ccc4O)[C@H](O)c3ccc(c(Cl)c3)Oc3cc2cc(c3O[C@@H]2O[C@H](CO)[C@@H](O)[C@H](O)[C@H]2O[C@H]2C[C@](C)(N)[C@H](O)[C@H](C)O2)Oc2ccc(cc2Cl)[C@H]1O [VANCOMYCIN] here?
**A.** 1 µg/mL (≈ 0.69 µM)

**Q.** And the MIC90 (Staphylococcus aureus)?
**A.** 1 µg/mL (≈ 0.69 µM)

**Q.** And the MIC50 (Streptococcus [1])?
**A.** 0.5 µg/mL (≈ 0.345 µM)

**Q.** And the MIC90 (Streptococcus [1])?
**A.** 0.5 µg/mL (≈ 0.345 µM)

**Q.** And the Activity (Staphylococcus)?
**A.** >99.9%

**Q.** What about the Activity (Streptococcus [2]) of the same compound?
**A.** 100%

**Q.** What about the “inhibition (INH)” value (Enterococcus faecalis [3]) of the same compound?
**A.** 0.4%

**Q.** And the inhibition at 0.06 µg/mL (Enterococcus faecalis [4])?
**A.** 0.9%

**Q.** What about the inhibition at 0.12 µg/mL (Enterococcus faecalis [5]) of the same compound?
**A.** 2.6%

**Q.** And the inhibition at 4 µg/mL (Enterococcus faecalis [6])?
**A.** 91.7%

**Q.** What about the inhibition at 0.06 µg/mL (Enterococcus faecium [7]) of the same compound?
**A.** 0.3%

**Q.** And the inhibition at 0.12 µg/mL (Enterococcus faecium [8])?
**A.** 1.2%

**Q.** And the inhibition at 0.5 µg/mL (Enterococcus faecium [9])?
**A.** 6.6%

**Q.** And the inhibition at 1 µg/mL (Enterococcus faecium [10])?
**A.** 11.5%

**Q.** What about the inhibition at 0.25 µg/mL (Enterococcus faecium [11]) of the same compound?
**A.** 77.6%

**Q.** And the inhibition at 0.25 µg/mL [12]?
**A.** 100%

**Q.** And the “inhibition (INH)” value (Streptococcus sp. [13])?
**A.** 97.1%

**Q.** What about the inhibition at 0.06 µg/mL (Streptococcus sp. [14]) of the same compound?
**A.** 97.1%
